These are literature values, as cited in patent US20190321375A1, “METHOD OF ADMINISTERING A NE[…] EFFECT ELECTROENCEPHALOGRAPHIC (EEG) BURST SUPPRESSION” (MARINUS PHARMACEUTICALS, INC., priority 2016, published 2019).

Read-outs that look alike come from different tables or passages of the source.

For orientation: half-life means how long it takes for the measured level to halve.

The conditions of data set [1]: in vivo.
In data set [2] the test system is patients. The following applies: induction bolus.

Consider `CC(=O)[C@H]1CC[C@H]2[C@@H]3CC[C@H]4C[C@H](O)CC[C@]4(C)[C@H]3CC[C@]12C` [Allopregnanolone, 3α,5α-tetrahydroprogesterone], for which, where the note is “human plasma”, the half-life was 45 min. Further, the oral availability entry in data set [1] was “poor oral availability”.

For the molecule `CC(=O)[C@H]1CC[C@H]2[C@@H]3CC[C@H]4C[C@](C)(O)CC[C@]4(C)[C@H]3CC[C@]12C` [Ganaxolone, 3α-hydroxy, 3β-methyl-5α-pregnan-20-one], under “human plasma following oral administration”, the half-life entry was “approximately 20 hours”. The Tmax entry (therapeutic blood levels are reached quickly) is “short”. Besides, the oral availability entry in data set [1] is “poor oral availability”.

As for `CC(C)c1cccc(C(C)C)c1O` [propofol], in data set [2], the “entry into burst suppression” value is given as “can enter burst suppression directly from the awake state”.
